Test results as given in patent EP4516108A1, “METHOD FOR PRESERVING A BAKERY PRODUCT USING CHITOSAN AS INGREDIENT” (Mauri Technology B.V., priority 2023, dated 2025).

What was measured:
[1] = cited from earlier work
A. niger = assay: Accelerated shelf-life testing (ASLT): time of appearance (TOA) of mould on inoculated breadcrumbs
Description: Breads were made by mixing the dough ingredients from Table 1. The wt.% for several ingredients are given based on flour weight (Flour Weight Based, FWB). For the prepared recipes the difference with total dry weight is insubstantial. The following breads were prepared: a control without any preservatives, a reference containing 0.3% flour weight based (FWB) calcium propionate (CalPro), and a bread containing 1% chitosan (KitoZyme, Belgium) with number average MW of 15 kDa and degree of deacetylation (DDA) of 70%. […] Ingredients were mixed using a spiral mixer for 10 minutes. Afterwards the dough for each trial was divided into three pieces of 520 g, rounded manually, and placed into bread tins. The dough pieces were placed in a proofing cabinet to rise at 40 °C and 80% relative humidity until they reach similar height (fermentation time between 60-70 min). The breads were baked for 22 minutes in a deck oven at 260 (bottom) and 230 (top) °C.
Following baking, the breads were cooled in a HEPA-filtered chamber for 90 min. One bread was used for pH measurement and two breads were subjected to ASLT.
To perform ASLT, the remaining two breads were sliced to 13 mm slices. The crumb (inner part of breads) of three random slices from each bread were cut out using a cookie cutter (3.2 cm diameter) and placed in sterile 6-well plates (2x breads × 3 slices). Two 6-well plates were prepared per bread type. Each bread piece in a 6-well plate was inoculated with 3 aliquots of ±500 spores (20 pL) of either A. niger or P. paneum. Therefore, 18 spots of each mould were inoculated per trial (6 bread piece × 3 aliquots). Freeze-dried spores were used in all experiments. The inoculated breads incubated at room temperature of around 21 °C untill visible mould appearance. The appearance of the moulds was imaged by taking photographs. The images were inspected visually, and the TOA was defined as mould appearance in hours after mould inoculation.
Due to limited availability of the high MW chitosan samples, ASLT was performed at small scale in bread rolls. […]

P. paneum = assay: Accelerated shelf-life testing (ASLT): time of appearance (TOA) and growth pattern of mould on inoculated breadcrumbs; format: cell-based, Penicillium paneum; details: Example 1, tin breads, ±500 spores, around 21 °C; CalPro 0.3% FWB, chitosan 1% FWB (about 1 wt.%)

Compound	pKa [1]	effectiveness against A. niger, CalPro compared to chitosan (A. niger; CalPro 0.3% FWB vs chitosan 1% FWB)	TOA of A. niger improved compared to control without preservative (A. niger; CalPro 0.3% FWB, FWF 0.78% FWB, chitosan >0.5 wt.%, alone or in combination)	increased TOA of A. niger compared to control bread without preservatives (A. niger; Example 1, tin breads, ±500 spores, around 21 °C, CalPro 0.3% FWB, chitosan 1% FWB (about 1 wt.%))	increased TOA of P. paneum compared to control bread without preservatives (P. paneum)
CC(O)C(=O)O (stereo not drawn) [lactic acid]	about 3.85	–	–	–	–
CCC(=O)[O-].CCC(=O)[O-].[Ca+2] [CalPro, calcium propionate]	–	more effective	approximately 50%	80%	17%
C/C=C/C=C/C(=O)O [sorbic acid]	about 4.76	–	–	–	–
